What was measured:
[1] = tested on: Phosphorylated Ribosomal Protein S6 (RPS6); experiment: THP-1 RPS6 ELISA Assay; type: cell-based, Human; conditions: Homo sapiens; THP-1 cells; read-out: PI3Kγ_THP1_RPS6_ELISA IC50
Outline: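 Serum-starved THP-1 cells were preincubated with a concentration range of compound for 2 h at 37 °C, then stimulated with 10 nM MCP-1 for 15 min. Phospho-RPS6 in lysates was quantified by ELISA at 450 nm. IC50 came from percent inhibition versus log inhibitor concentration.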

[2] = molecular target: PI3Kγ (p110γ) Recombinant Human Protein (Homo sapiens (Human), UniProt P48736); experiment: PI3K-γ Scintillation Proximity Assay; type: biochemical; conditions: read-out: PI3Kγ IC50
Outline: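 Recombinant human p110γ assayed at room temperature in 20 mM MOPS pH 6.7, 10 mM MgCl2, 5 mM DTT, 0.03% CHAPS, 2% DMSO, with 20 μM PIP2 and 2 μM ATP plus [γ-33P]ATP. Product captured on WGA SPA beads overnight and counted; IC50 fitted from % of solvent-control activity versus log inhibitor concentration.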

[3] = molecular target: PI3Kδ (p110δ/p85α) Recombinant Human Protein (Homo sapiens (Human), UniProt O00329); experiment: PI3Kδ Scintillation Proximity Assay; type: biochemical
Outline: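 Recombinant human p110δ/p85α (3.4 nM) with 20 μM PIP2 and 2 μM ATP plus [γ-33P]ATP, in 20 mM MOPS pH 6.7, 10 mM MgCl2, 5 mM DTT, 0.03% CHAPS, 2% DMSO; 120 min at room temperature. Product captured on WGA SPA beads, scintillation counted; IC50 from percent-of-control curves.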

PI3Kγ (p110γ) Recombinant Human Protein, sequence (P48736 whole entry): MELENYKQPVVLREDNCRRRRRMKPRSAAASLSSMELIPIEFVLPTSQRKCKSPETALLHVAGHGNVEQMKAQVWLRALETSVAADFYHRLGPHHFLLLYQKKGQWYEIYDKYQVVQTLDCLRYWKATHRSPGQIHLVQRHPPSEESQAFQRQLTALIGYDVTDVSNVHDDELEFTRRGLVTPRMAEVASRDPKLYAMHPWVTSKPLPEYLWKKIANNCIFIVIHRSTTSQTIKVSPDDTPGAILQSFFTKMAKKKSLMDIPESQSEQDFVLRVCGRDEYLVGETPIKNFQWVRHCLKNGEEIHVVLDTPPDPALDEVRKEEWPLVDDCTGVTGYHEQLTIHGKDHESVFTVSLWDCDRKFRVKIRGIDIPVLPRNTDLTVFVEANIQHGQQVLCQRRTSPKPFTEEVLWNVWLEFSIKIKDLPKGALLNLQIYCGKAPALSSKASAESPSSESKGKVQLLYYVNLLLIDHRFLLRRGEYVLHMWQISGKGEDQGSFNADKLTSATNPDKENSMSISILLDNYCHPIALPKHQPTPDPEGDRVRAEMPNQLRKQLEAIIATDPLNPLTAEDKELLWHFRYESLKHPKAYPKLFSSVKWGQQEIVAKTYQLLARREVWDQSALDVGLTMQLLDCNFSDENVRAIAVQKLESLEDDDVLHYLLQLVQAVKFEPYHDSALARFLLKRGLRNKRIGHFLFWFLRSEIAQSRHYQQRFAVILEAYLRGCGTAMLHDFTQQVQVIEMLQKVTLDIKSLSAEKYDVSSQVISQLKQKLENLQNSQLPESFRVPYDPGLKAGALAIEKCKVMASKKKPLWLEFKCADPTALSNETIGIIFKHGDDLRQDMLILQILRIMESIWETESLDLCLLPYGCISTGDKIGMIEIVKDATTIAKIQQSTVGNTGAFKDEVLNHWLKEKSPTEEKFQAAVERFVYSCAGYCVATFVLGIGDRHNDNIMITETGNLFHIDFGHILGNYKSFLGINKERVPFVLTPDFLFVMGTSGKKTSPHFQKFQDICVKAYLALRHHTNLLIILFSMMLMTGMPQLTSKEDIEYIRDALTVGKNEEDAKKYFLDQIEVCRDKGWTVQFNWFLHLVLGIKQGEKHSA
PI3Kδ (p110δ/p85α) Recombinant Human Protein, sequence (O00329 whole entry): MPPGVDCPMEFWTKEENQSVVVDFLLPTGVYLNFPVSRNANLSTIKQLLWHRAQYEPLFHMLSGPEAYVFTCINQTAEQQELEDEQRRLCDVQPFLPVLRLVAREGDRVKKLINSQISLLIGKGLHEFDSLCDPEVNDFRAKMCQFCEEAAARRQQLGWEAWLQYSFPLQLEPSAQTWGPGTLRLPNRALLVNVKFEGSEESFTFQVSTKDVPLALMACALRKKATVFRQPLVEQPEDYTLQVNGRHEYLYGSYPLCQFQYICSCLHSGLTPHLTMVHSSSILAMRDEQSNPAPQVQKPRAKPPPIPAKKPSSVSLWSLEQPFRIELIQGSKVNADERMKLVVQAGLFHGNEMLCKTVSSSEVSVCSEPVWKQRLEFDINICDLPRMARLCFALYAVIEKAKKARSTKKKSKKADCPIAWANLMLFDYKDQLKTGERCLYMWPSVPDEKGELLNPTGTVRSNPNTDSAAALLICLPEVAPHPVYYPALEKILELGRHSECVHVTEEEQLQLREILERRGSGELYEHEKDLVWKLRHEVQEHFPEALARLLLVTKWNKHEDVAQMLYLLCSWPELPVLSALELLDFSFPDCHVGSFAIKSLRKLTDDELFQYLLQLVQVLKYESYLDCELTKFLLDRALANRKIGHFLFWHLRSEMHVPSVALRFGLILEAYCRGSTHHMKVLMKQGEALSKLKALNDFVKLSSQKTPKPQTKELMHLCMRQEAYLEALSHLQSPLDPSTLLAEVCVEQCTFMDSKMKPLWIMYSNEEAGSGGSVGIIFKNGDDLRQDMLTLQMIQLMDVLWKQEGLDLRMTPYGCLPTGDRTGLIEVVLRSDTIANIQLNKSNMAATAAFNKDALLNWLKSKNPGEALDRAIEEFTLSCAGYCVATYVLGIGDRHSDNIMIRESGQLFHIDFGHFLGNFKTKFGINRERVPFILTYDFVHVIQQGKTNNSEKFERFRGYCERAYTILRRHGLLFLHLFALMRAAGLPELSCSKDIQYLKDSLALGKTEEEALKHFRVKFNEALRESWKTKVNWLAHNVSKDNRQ
PI3Kδ (p110δ/p85α) Recombinant Human Protein, sequence (P27986 whole entry partner): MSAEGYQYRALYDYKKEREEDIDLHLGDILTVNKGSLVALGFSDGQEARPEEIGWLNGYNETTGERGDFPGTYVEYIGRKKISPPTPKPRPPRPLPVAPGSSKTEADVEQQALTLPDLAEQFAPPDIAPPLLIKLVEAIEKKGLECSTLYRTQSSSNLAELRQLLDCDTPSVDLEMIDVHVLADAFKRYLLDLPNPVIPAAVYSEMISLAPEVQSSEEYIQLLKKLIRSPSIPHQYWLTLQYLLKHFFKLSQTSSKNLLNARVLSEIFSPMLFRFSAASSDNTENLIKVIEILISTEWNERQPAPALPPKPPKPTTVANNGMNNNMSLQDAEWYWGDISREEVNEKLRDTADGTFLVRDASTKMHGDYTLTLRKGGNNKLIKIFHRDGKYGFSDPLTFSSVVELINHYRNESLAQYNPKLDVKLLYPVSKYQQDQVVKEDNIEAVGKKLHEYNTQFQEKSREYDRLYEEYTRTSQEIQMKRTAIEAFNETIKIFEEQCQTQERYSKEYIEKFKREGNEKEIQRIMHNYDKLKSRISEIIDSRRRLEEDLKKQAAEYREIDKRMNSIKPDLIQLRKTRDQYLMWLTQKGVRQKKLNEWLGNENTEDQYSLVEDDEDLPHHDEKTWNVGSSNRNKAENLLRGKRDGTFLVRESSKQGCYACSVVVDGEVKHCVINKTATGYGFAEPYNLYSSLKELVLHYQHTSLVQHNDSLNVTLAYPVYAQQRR

## Cc1ccc(S(=O)(=O)NCC2CCOC2)cc1-c1cnc2c(N)nccn12 (stereo not drawn) [Example 48, 3-(8-Aminoimidazo[1,2-a]pyrazin-3-yl)-4-methyl-N-(tetrahydrofuran-3-ylmethyl)benzenesulfonamide]
[1]
  IC50: > 1000 nM
[2]
  IC50: < 100 nM
[3]
  IC50: 500 to 2000 nM

## Cc1ccc(S(=O)(=O)NC2CCOCC2)cc1-c1cnc2c(N)nccn12 [Example 49, 3-(8-Aminoimidazo[1,2-a]pyrazin-3-yl)-4-methyl-N-(tetrahydro-2H-pyran-4-yl)benzenesulfonamide]
[1]
  IC50: > 1000 nM
[2]
  IC50: < 100 nM
[3]
  IC50: 500 to 2000 nM

## Cc1ccc(S(=O)(=O)NCCCO)cc1-c1cnc2c(N)nccn12 [Example 50, 3-(8-Aminoimidazo[1,2-a]pyrazin-3-yl)-N-(3-hydroxypropyl)-4-methylbenzenesulfonamide]
[1]
  IC50: > 1000 nM
[2]
  IC50: < 100 nM
[3]
  IC50: 500 to 2000 nM

## Cc1ccc(S(=O)(=O)N2CCC(O)CC2)cc1-c1cnc2c(N)nccn12 [Example 51, 1-{[3-(8-Aminoimidazo[1,2-a]pyrazin-3-yl)-4-methylphenyl]sulfonyl}piperidin-4-ol]
[1]
  IC50: > 1000 nM
[2]
  IC50: < 100 nM
[3]
  IC50: 500 to 2000 nM

## Cc1ccc(S(=O)(=O)N(C)[C@H]2CC[C@H](O)CC2)cc1-c1cnc2c(N)nccn12 [Example 52, 3-(8-Aminoimidazo[1,2-a]pyrazin-3-yl)-N-(trans-4-hydroxycyclohexyl)-N,4-dimethylbenzenesulfonamide]
[1]
  IC50: 500 to 1000 nM
[2]
  IC50: < 100 nM
[3]
  IC50: 100 to 500 nM

## CO[C@H]1CC[C@H](NS(=O)(=O)c2ccc(C)c(-c3cnc4c(N)nccn34)c2)CC1 [Example 53, 3-(8-Aminoimidazo[1,2-a]pyrazin-3-yl)-N-(trans-4-methoxycyclohexyl)-4-methylbenzenesulfonamide]
[1]
  IC50: > 1000 nM
[2]
  IC50: < 100 nM
[3]
  IC50: 500 to 2000 nM

## Cc1ccc(S(=O)(=O)N[C@H]2C[C@H](O)C2)cc1-c1cnc2c(N)nccn12 [Example 54, 3-(8-Aminoimidazo[1,2-a]pyrazin-3-yl)-N-(trans-3-hydroxycyclobutyl)-4-methylbenzenesulfonamide]
[1]
  IC50: > 1000 nM
[2]
  IC50: < 100 nM
[3]
  IC50: 100 to 500 nM

## Cc1ccc(S(=O)(=O)N[C@H]2CC[C@H](NC(=O)OC(C)(C)C)CC2)cc1-c1cnc2c(N)nccn12 [Example 55, tert-Butyl [trans-4-({[3-(8-aminoimidazo[1,2-a]pyrazin-3-yl)-4-methylphenyl]sulfonyl}amino)cyclohexyl]carbamate]
[1]
  IC50: > 1000 nM
[2]
  IC50: < 100 nM
[3]
  IC50: > 2000 nM

## Cc1ccc(S(=O)(=O)N[C@H]2C[C@H](CO)C2)cc1-c1cnc2c(N)nccn12 [Example 56, 3-(8-Aminoimidazo[1,2-a]pyrazin-3-yl)-N-[trans-3-(hydroxymethyl)cyclobutyl]-4-methylbenzenesulfonamide]
[1]
  IC50: > 1000 nM
[2]
  IC50: < 100 nM
[3]
  IC50: 500 to 2000 nM

## Cc1ccc(S(=O)(=O)N[C@H]2CC[C@H](CO)OC2)cc1-c1cnc2c(N)nccn12 [Example 57, 3-(8-Aminoimidazo[1,2-a]pyrazin-3-yl)-N-[(3S,6R)-6-(hydroxymethyl)tetrahydro-2H-pyran-3-yl]-4-methylbenzenesulfonamide]
[1]
  IC50: > 1000 nM
[2]
  IC50: < 100 nM
[3]
  IC50: 500 to 2000 nM

## Cc1ccc(S(=O)(=O)N[C@H]2CC[C@H](N)CC2)cc1-c1cnc2c(N)nccn12 [Example 58, N-(trans-4-Aminocyclohexyl)-3-(8-aminoimidazo[1,2-a]pyrazin-3-yl)-4-methylbenzenesulfonamide]
[1]
  IC50: > 1000 nM
[2]
  IC50: 100 to 500 nM
[3]
  IC50: 500 to 2000 nM

## CC(=O)N[C@H]1CC[C@H](NS(=O)(=O)c2ccc(C)c(-c3cnc4c(N)nccn34)c2)CC1 [Example 59, N-[trans-4-({[3-(8-Aminoimidazo[1,2-a]pyrazin-3-yl)-4-methylphenyl]sulfonyl}amino)cyclohexyl]acetamide]
[1]
  IC50: > 1000 nM
[2]
  IC50: < 100 nM
[3]
  IC50: 500 to 2000 nM
